# Laboratory results taken from US20220089592A1, “IMIDAZO[1,2-A]PYRIDINYL DERIVATIVES AS IRAK4 INHIBITORS” (priority 2019, published 2022).
# Target: T1, IRAK4 (Homo sapiens, UniProt Q9NWZ3)
# T1 sequence (Q9NWZ3 1-460): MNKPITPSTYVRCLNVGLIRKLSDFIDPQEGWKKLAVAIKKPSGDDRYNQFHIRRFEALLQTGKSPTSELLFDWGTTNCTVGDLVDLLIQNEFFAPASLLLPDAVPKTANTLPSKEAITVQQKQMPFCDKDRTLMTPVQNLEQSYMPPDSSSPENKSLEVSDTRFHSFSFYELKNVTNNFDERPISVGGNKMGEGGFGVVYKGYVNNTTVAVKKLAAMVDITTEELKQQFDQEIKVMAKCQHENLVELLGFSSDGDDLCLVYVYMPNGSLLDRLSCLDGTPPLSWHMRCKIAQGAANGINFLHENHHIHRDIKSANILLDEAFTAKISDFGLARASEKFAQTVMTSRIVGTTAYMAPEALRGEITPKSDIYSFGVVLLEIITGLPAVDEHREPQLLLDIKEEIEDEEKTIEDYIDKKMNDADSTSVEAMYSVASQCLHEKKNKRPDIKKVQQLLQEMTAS
# Experiment: 2-hour 10 μM ATP Biochemical Assay (MesoScale Detection format; IRAK4 phosphorylation of biotin labeled IRAK1 activation loop peptide)
# Settings: IRAK4 MSD BIOCHEMICAL (10 μM ATP) IC50 (μM), 1 nM IRAK4, 2 hours
# Protocol: The 2-hour 10 μM ATP Biochemical Assay employs a MesoScale Detection (MSD) format.
# The activity is quenched with 11 μl of 70 mM EDTA, pH 8.
# To detect the phosphorylated biotinylated peptide substrate, 30 μl of the quenched reaction mixture is added to equivalent wells of a 384 well streptavidin coated MesoScale plate (Meso Scale Discovery #L21SA-1). After a 1 hour incubation of the plate for 1 hour at room temperature with gentle mixing, the plate wells are washed 3 times with 50 mM Tris, pH 7.5, 150 mM NaCl, 0.02% Tween-20.
# A 25 μl volume of 1:500 anti-P-Threonine Rabbit polyclonal Antibody plus 1:500 Goat-anti-Rabbit Sulfo Tag Antibody (Meso Scale Discovery R32AB-1) in 50 mM Tris, pH 7.5, 150 mM NaCl, 0.02% Tween-20 plus 2% BSA is then added to each well. After a 1-hour incubation of the plate for 1 hour at room temperature with gentle mixing, the plate wells are washed, 3 times with 50 mM Tris, pH 7.5, 150 mM NaCl, 0.02% Tween-20. A 40 μl volume of 2×MSD Read Buffer (Meso Scale Discovery R92TC-1) is added to each well, and the plate is read immediately in an MSD Plate Reader (Meso Scale Discovery).
row,IC50 [µM],Structure (SMILES)
1,0.043,"CCOc1cc(NC(=O)c2cccc(C(F)F)n2)cn2cc(C3CC3)nc12 [Example 28, N-(2-cyclopropyl-8-ethoxyimidazo[1,2-a]pyridin-6-yl)-6-(difluoromethyl)picolinamide]"
2,0.22,"CCOc1cc2nc(CC3CCOC3)cn2cc1NC(=O)c1nc(C)co1 (centres unmarked) [Example 154, N-(7-ethoxy-2-((tetrahydrofuran-3-yl)methyl)imidazo[1,2-a]pyridin-6-yl)-4-methyloxazole-2-carboxamide]"
3,0.26,"CCOc1cc2nc(CC)cn2cc1NC(=O)c1nc(C(F)(F)F)ccc1F [Example 36, N-(7-ethoxy-2-ethylimidazo[1,2-a]pyridin-6-yl)-3-fluoro-6-(trifluoromethyl)picolinamide]"
4,0.002,"COc1cc(NC(=O)c2cccc(C(F)F)n2)cn2cc(C34COC(C)(C3)C4)nc12 [Example 508, 6-(difluoromethyl)-N-(8-methoxy-2-(1-methyl-2-oxabicyclo[2.1.1]hexan-4-yl)imidazo[1,2-a]pyridin-6-yl)picolinamide 2,2,2-trifluoroacetate]"
5,0.023,"CCOc1cc2nc(C3CC3)c(F)n2cc1NC(=O)c1cccc(C(F)F)n1 [Example 29, N-(2-cyclopropyl-7-ethoxy-3-fluoroimidazo[1,2-a]pyridin-6-yl)-6-(difluoromethyl)picolinamide]"
6,0.003,"COc1nc(NC(=O)c2cccc(C(F)F)n2)cn2cc(C3CCOCC3)nc12 [Example 450, 6-(difluoromethyl)-N-(8-methoxy-2-(tetrahydro-2H-pyran-4-yl)imidazo[1,2-a]pyrazin-6-yl)picolinamide]"
7,0.34,"CCOc1cc2nc(CC)cn2cc1NC(=O)c1ccc(F)cc1F [Example 40, N-(7-ethoxy-2-ethylimidazo[1,2-a]pyridin-6-yl)-2,4-difluorobenzamide]"
8,0.14,"C[C@@H](COc1cc2nc(C3CC3)cn2cc1NC(=O)c1cccc(C(F)F)n1)n1ccccc1=O (single isomer, unassigned) [Example 8]"
9,0.003,"COc1cc(NC(=O)c2cccc(C(F)F)n2)cn2cc(CC3CCOC3)nc12 (centres unmarked) [Example 411, 6-(difluoromethyl)-N-(8-methoxy-2-((tetrahydrofuran-3-yl)methyl)imidazo[1,2-a]pyridin-6-yl)picolinamide]"
10,0.048,"O=C(Nc1ccc2nc(C3CC3)cn2c1)c1cccc(C(F)F)n1 [Example 30, N-(2-cyclopropylimidazo[1,2-a]pyridin-6-yl)-6-(difluoromethyl)picolinamide]"
11,2.3,"CCOc1cc2nc(CC)cn2cc1NC(=O)c1cc(C)c(C)cn1 [Example 45, N-(7-ethoxy-2-ethylimidazo[1,2-a]pyridin-6-yl)-4,5-dimethylpicolinamide]"
12,0.059,"O=C(Nc1cn2cc(C3CC3)nc2cc1O)c1cccc(C(F)F)n1 [Example 10, N-(2-cyclopropyl-7-hydroxyimidazo[1,2-a]pyridin-6-yl)-6-(difluoromethyl)picolinamide]"
13,0.003,"CCOc1cc2nc(C3CN(CC(F)F)C3)cn2cc1NC(=O)c1ccn(CC(F)F)n1 [Example 291, 1-(2,2-difluoroethyl)-N-(2-(1-(2,2-difluoroethyl)azetidin-3-yl)-7-ethoxyimidazo[1,2-a]pyridin-6-yl)-1H-pyrazole-3-carboxamide]"
14,0.079,"CC[C@@H]1[C@H](F)C(=O)N[C@@H]1COc1cc2nc(C3CC3)cn2cc1NC(=O)c1cccc(C(F)F)n1 [Example 11, N-(2-cyclopropyl-7-(((2S,3S,4S)-3-ethyl-4-fluoro-5-oxopyrrolidin-2-yl)methoxy)imidazo[1,2-a]pyridin-6-yl)-6-(difluoromethyl)picolinamide]"
15,2.9,"CCOc1cc2nc(CC3CCOC3)cn2cc1NC(=O)c1nc(C)no1 (centres unmarked) [Example 158, N-(7-ethoxy-2-((tetrahydrofuran-3-yl)methyl)imidazo[1,2-a]pyridin-6-yl)-3-methyl-1,2,4-oxadiazole-5-carboxamide]"
16,0.11,"CCOc1cc2nc(C)c(C)n2cc1NC(=O)c1cccc(C(F)(F)F)n1 [Example 58, N-(7-ethoxy-2,3-dimethylimidazo[1,2-a]pyridin-6-yl)-6-(trifluoromethyl)picolinamide]"

row,IC50 [µM],Structure (SMILES)
1,0.061,"O=C(Nc1cn2cc(C3CC3)nc2cc1OCCN1CCOCC1)c1cccc(C(F)F)n1 [Example 102, N-(2-cyclopropyl-7-(2-morpholinoethoxy)imidazo[1,2-a]pyridin-6-yl)-6-(difluoromethyl)picolinamide]"
2,0.018,"CCOc1cc2nc(C3CC3)cn2cc1NC(=O)c1cccc(C2(O)CCC2)n1 [Example 132, N-(2-cyclopropyl-7-ethoxyimidazo[1,2-a]pyridin-6-yl)-6-(1-hydroxycyclobutyl)picolinamide]"
3,0.022,"CCOc1cc2nc(C3CCOCC3)cn2cc1NC(=O)c1ccccc1F [Example 212, N-(7-ethoxy-2-(tetrahydro-2H-pyran-4-yl)imidazo[1,2-a]pyridin-6-yl)-2-fluorobenzamide]"
4,0.027,"O=C(Nc1cc(Br)c2nc(C3CCOCC3)cn2c1)c1cccc(C(F)(F)F)n1 [Example 106, N-(8-bromo-2-(tetrahydro-2H-pyran-4-yl)imidazo[1,2-a]pyridin-6-yl)-6-(trifluoromethyl)picolinamide]"
5,0.033,"COc1cc2nc(C3CC3)cn2cc1NC(=O)c1cccn(C)c1=O [Example 52, N-(2-cyclopropyl-7-methoxyimidazo[1,2-a]pyridin-6-yl)-1-methyl-2-oxo-1,2-dihydropyridine-3-carboxamide]"
6,0.063,"CCOc1cc2nc(C3CC3)cn2cc1NC(=O)c1cccc(OC(F)(F)F)n1 [Example 118, N-(2-cyclopropyl-7-ethoxyimidazo[1,2-a]pyridin-6-yl)-6-(trifluoromethoxy)picolinamide]"
7,0.004,"COc1cc(NC(=O)c2cccc(C(F)F)n2)cn2cc(C34CC(C#N)(C3)C4)nc12 [Example 511, N-(2-(3-cyanobicyclo[1.1.1]pentan-1-yl)-8-methoxyimidazo[1,2-a]pyridin-6-yl)-6-(difluoromethyl)picolinamide 2,2,2-trifluoroacetate]"
8,0.023,"CCOc1cc2nc(CC)cn2cc1NC(=O)c1ccc(C)c(C)n1 [Example 34, N-(7-ethoxy-2-ethylimidazo[1,2-a]pyridin-6-yl)-5,6-dimethylpicolinamide]"
9,0.002,"COc1cc(NC(=O)c2cccc(C(F)F)n2)cn2cc(C3CC4CCC(C3)O4)nc12 (centres unmarked) [Example 509, N-(2-(8-oxabicyclo[3.2.1]octan-3-yl)-8-methoxyimidazo[1,2-a]pyridin-6-yl)-6-(difluoromethyl)picolinamide 2,2,2-trifluoroacetate]"
10,0.001,"CCOc1cc2nc(C34CC(C(C)(C)O)(C3)C4)cn2cc1NC(=O)c1cccc(C(F)F)n1 [Example 129, 6-(difluoromethyl)-N-(7-ethoxy-2-(3-(2-hydroxypropan-2-yl)bicyclo[1.1.1]pentan-1-yl)imidazo[1,2-a]pyridin-6-yl)picolinamide]"
11,0.001,"CC(C)Oc1cc2nc(C3CCOCC3)cn2cc1NC(=O)c1cccc(C(F)F)n1 [Example 167, 6-(difluoromethyl)-N-(7-isopropoxy-2-(tetrahydro-2H-pyran-4-yl)imidazo[1,2-a]pyridin-6-yl)picolinamide]"
12,0.14,"CCOc1cc2nc(CC)cn2cc1NC(=O)c1ccc2c(c1)NC(=O)C2 [Example 41, N-(7-ethoxy-2-ethylimidazo[1,2-a]pyridin-6-yl)-2-oxoindoline-6-carboxamide]"
13,0.68,"CCOc1cc2nc3c(n2cc1NC(=O)c1cccc(C(F)(F)F)n1)CNCC3 [Example 64, N-(7-ethoxy-1,2,3,4-tetrahydroimidazo[1,2-a:5,4-c′]dipyridin-8-yl)-6-(trifluoromethyl)picolinamide]"
14,2.3,"CCOc1cc2nc(CC3CCOC3)cn2cc1NC(=O)c1cn(C)cn1 (centres unmarked) [Example 157, N-(7-ethoxy-2-((tetrahydrofuran-3-yl)methyl)imidazo[1,2-a]pyridin-6-yl)-1-methyl-1H-imidazole-4-carboxamide]"
15,0.66,"CCOc1cc2nc(C3CC3)cn2cc1NC(=O)c1cccnc1OCC(F)(F)F [Example 71, N-(2-cyclopropyl-7-ethoxyimidazo[1,2-a]pyridin-6-yl)-2-(2,2,2-trifluoroethoxy)nicotinamide]"
16,0.002,"CCOc1cc2nc(C(C)(C)C#N)cn2cc1NC(=O)c1cccc(C(F)CF)n1 (centres unmarked) [Example 245, N-(2-(2-cyanopropan-2-yl)-7-ethoxyimidazo[1,2-a]pyridin-6-yl)-6-(1,2-difluoroethyl)picolinamide]"
